Test results from patent publication US11369605B2, “Optically active azabicyclo ring derivative” (priority 2018, dated 2022).
pIC50: −log10 of the molar value. Entries after “also recorded” stand apart in the source; their conditions may differ.

Legend:
[1] = target: hERG (human Ether-a-go-go Related Gene) (Homo sapiens (Human), UniProt Q12809); assay: Test 4: hERG inhibition (QPatch HT); details: for pIC50: read-out: hERG inhibition IC50, CHO cell strain stably expressing hERG; for gap between RS4; 11 proliferation IC50 and hERG current IC50: summary of Test 4 table; for hERG/RS4; 11: hERG IC50 divided by RS4, 11 proliferation IC50
Chain of hERG (human Ether-a-go-go Related Gene) (Q12809 whole entry): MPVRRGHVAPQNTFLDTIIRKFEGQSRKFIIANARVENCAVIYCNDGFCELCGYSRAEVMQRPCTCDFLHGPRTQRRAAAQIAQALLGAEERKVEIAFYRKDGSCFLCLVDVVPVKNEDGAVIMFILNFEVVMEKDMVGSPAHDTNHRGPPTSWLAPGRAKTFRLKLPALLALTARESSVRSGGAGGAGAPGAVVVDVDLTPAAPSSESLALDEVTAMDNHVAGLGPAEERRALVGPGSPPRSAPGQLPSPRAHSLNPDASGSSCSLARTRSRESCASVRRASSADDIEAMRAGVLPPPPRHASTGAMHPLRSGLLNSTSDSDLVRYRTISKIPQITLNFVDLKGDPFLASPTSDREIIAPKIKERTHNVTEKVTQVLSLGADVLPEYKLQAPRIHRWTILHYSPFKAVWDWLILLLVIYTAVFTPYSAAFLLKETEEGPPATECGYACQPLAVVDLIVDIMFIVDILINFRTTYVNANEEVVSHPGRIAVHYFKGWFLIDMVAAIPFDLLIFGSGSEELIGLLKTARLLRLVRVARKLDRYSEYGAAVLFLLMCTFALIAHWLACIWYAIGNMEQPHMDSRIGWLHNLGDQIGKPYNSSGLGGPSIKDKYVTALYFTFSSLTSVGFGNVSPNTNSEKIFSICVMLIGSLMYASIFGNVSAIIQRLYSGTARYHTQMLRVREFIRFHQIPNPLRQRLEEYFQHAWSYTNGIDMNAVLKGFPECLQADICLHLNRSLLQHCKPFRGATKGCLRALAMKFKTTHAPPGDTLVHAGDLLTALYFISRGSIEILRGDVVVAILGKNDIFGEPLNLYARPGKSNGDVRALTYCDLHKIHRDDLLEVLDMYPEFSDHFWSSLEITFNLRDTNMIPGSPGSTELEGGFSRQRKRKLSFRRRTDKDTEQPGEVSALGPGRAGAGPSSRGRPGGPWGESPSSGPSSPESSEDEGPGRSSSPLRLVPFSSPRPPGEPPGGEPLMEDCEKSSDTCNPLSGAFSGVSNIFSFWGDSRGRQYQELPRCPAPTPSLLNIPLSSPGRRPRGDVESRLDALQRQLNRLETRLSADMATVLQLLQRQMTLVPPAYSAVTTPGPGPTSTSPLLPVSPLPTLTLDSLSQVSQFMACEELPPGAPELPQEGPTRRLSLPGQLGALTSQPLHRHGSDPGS

RS4; 11 cells = assay: Test 2: inhibition of cell proliferation, RS4; 11; assay type: cell-based; details: for cell proliferation inhibition activity (in words): summary of Test 2 (RS4; 11 and MOLM-13)
Experimental: (§1) Test for Evaluating the Inhibition of Cell Proliferation RS4; 11 cells were obtained from American Type Culture Collection (ATCC). […] MOLM-13 cells were separately obtained from DSMZ (Deutsche Sammlung von Mikroorganismen und Zeilkulturen GmbH). […] The cells were plated to a 96-well plate in 2000 cells/well, each test compound was added thereto to adjust the final concentration of DMSO to 0.1% of DMSO, and the cells were cultured for 7 days. After the cultivation, the cell viability was calculated with PrestoBlue™ Cell Viability Reagent (Invitrogen, A13261).

MOLM-13 cells = assay: Test 2: inhibition of cell proliferation, MOLM-13; assay type: cell-based; details: cultured 7 days, PrestoBlue
Experimental: as §1

[2] = target: Menin-MLL binding (His-Menin1-615, MLL1-172-FLAG) (Homo sapiens (Human), UniProt O00255); assay: Test 1: inhibition of the Menin-MLL binding (HTRF); details: summary of Test 1 table
Chain of Menin-MLL binding (His-Menin1-615, MLL1-172-FLAG) (O00255 other isoform, or with tags, fused parts or gaps): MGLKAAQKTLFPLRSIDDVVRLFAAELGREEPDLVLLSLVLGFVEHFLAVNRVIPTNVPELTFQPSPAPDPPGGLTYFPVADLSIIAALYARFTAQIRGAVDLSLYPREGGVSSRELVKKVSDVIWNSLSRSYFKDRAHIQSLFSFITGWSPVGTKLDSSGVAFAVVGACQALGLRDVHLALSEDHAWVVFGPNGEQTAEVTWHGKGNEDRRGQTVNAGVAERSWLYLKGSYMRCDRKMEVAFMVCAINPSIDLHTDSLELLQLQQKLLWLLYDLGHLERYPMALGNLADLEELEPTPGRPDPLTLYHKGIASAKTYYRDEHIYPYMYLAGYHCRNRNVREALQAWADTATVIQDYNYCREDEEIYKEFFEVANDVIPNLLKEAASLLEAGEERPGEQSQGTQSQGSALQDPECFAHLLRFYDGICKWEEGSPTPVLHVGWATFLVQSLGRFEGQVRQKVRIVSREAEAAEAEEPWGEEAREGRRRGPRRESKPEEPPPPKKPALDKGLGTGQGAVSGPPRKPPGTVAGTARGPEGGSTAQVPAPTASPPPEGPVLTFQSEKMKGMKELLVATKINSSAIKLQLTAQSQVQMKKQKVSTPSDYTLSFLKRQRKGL
Experimental: Test 1: Test for Evaluating the Inbinition of the Menin-MLL Binding
After the incubation, the signal was detected with RUBYstar (BMG LABTECH).

[3] = tested on: MEIS1 mRNA in MV4; 11 cells; assay: Test 3: inhibition of mRNA transcription, MEIS1; assay type: cell-based; details: for mRNA transcription inhibition activity (in words): MEIS1 and HOXA9, MV4, summary of Test 3
Experimental: (§2) Test 3: Test for the Inhibition of mRNA Transcription with Test Compounds
(§3) MV4; 11 cells were obtained from American Type Culture Collection (ATCC). […] After the incubation, the total RNA was extracted from the cells with RNeasy™ Mini Kit (QIAGEN, 74106), and cDNA was synthesized with Superscript™ VILO™ cDNA Synthesis Kit (Invitrogen, #11754250). By using TaqMan™ Gene Expression Master Mix (Applied Biosystems, 4369016) and TaqMan™ probe (Applied Biosystems), the expression level of mRNA was quantified from the obtained cDNA with 7900HT (Applied Biosystems). The expression level of each obtained gene (MEIS1 and HOXA9) was fitted with the expression level of mRNA of GAPDH.

[4] = tested on: HOXA9 mRNA in MV4; 11 cells; assay: Test 3: inhibition of mRNA transcription, HOXA9; assay type: cell-based; details: 20 to 24 hours, fitted with GAPDH
Experimental: as §2, §3

## 2-[(4-{6-[(1R,3S,4S)-2-azabicyclo[2.2.1]heptane-3-carbonyl]-2,6-diazaspiro[3.3]heptan-2-yl}pyrimidin-5-yl)oxy]-5-fluoro-N,N-di(propan-2-yl)benzamide [Example 15]
[1]
  pIC50: < 4.00
RS4; 11 cells
  cell proliferation inhibition activity (in words): potent

## CC(C)N(C(=O)c1cc(F)ccc1Oc1cncnc1N1CC2(CCN(C(=O)[C@H]3N[C@H]4CC[C@@H]3C(=O)C4)CC2)C1)C(C)C [Example 12, 5-fluoro-2-[(4-{7-[(1S,3S,4S)-5-oxo-2-azabicyclo[2.2.2]octane-3-carbonyl]-2,7-diazaspiro[3.5]nonan-2-yl}pyrimidin-5-yl)oxy]-N,N-di(propan-2-yl)benzamide]
[1]
  gap between RS4; 11 proliferation IC50 and hERG current IC50: more than 100 fold

## CC(C)N(C(=O)c1cc(F)ccc1Oc1cncnc1N1CC2(CCN(C(=O)[C@H]3N[C@H]4CC[C@@H]3[C@@H](F)[C@H]4CC3CC3)CC2)C1)C(C)C [Example 14, 2-[(4-{7-[(1S,3S,4S,5S,6S)-6-(cyclopropylmethyl)-5-fluoro-2-azabicyclo[2.2.2]octane-3-carbonyl]-2,7-diazaspiro[3.5]nonan-2-yl}pyrimidin-5-yl)oxy]-5-fluoro-N,N-di(propan-2-yl)benzamide]
[1]
  hERG/RS4; 11: 557
  gap between RS4; 11 proliferation IC50 and hERG current IC50: more than 100 fold
MOLM-13 cells; Homo sapiens
  pIC50: 7.40
RS4; 11 cells; Homo sapiens, RS4, 11 cells, cultured 7 days, PrestoBlue
  pIC50: 7.70
RS4; 11 cells
  cell proliferation inhibition activity (in words): potent

## CC(C)N(C(=O)c1cc(F)ccc1Oc1cncnc1N1CC2(CN(C(=O)[C@H]3N[C@H]4CC[C@@H]3C[C@@H]4CC3CC3)C2)C1)C(C)C [Example 3, 2-[(4-{6-[(1S,3S,4R,6S)-6-(cyclopropylmethyl)-2-azabicyclo[2.2.2]octane-3-carbonyl]-2,6-diazaspiro[3.3]heptan-2-yl}pyrimidin-5-yl)oxy]-5-fluoro-N,N-di(propan-2-yl)benzamide]
[1]
  gap between RS4; 11 proliferation IC50 and hERG current IC50: more than 100 fold
[2]
  Menin-MLL binding inhibition activity (in words): particularly potent
[3]
  mRNA transcription inhibition activity (in words): showed the mRNA transcription inhibition activity
RS4; 11 cells
  cell proliferation inhibition activity (in words): potent

## CC(C)N(C(=O)c1cc(F)ccc1Oc1cncnc1N1CC2(CCN(C(=O)[C@H]3N[C@H]4CC[C@@H]3C[C@H]4CC3CC3)CC2)C1)C(C)C [Example 4, 2-[(4-{7-[(1S,3S,4R,6R)-6-(cyclopropylmethyl)-2-azabicyclo[2.2.2]octane-3-carbonyl]-2,7-diazaspiro[3.5]nonan-2-yl}pyrimidin-5-yl)oxy]-5-fluoro-N,N-di(propan-2-yl)benzamide]
[1]
  gap between RS4; 11 proliferation IC50 and hERG current IC50: more than 100 fold
[2]
  Menin-MLL binding inhibition activity (in words): potent
[3]
  mRNA transcription inhibition activity (in words): showed the mRNA transcription inhibition activity
RS4; 11 cells
  cell proliferation inhibition activity (in words): potent

## CC(C)N(C(=O)c1cc(F)ccc1Oc1cncnc1N1CC2(CCN(C(=O)[C@H]3N[C@H]4CC[C@@H]3C[C@@H]4CC3CC3)CC2)C1)C(C)C [Example 1, 2-[(4-{7-[(1S,3S,4R,6S)-6-(Cyclopropylmethyl)-2-azabicyclo[2.2.2]octane-3-carbonyl]-2,7-diazaspiro[3.5]nonan-2-yl}pyrimidin-5-yl)oxy]-5-fluoro-N,N-di(propan-2-yl)benzamide]
[1]
  gap between RS4; 11 proliferation IC50 and hERG current IC50: more than 100 fold
[2]
  Menin-MLL binding inhibition activity (in words): potent
[3]
  mRNA transcription inhibition activity (in words): showed the mRNA transcription inhibition activity
RS4; 11 cells
  cell proliferation inhibition activity (in words): potent

## C=C1C[C@H]2CC[C@@H]1N[C@@H]2C(=O)N1CC2(C1)CN(c1ncncc1Oc1ccc(F)cc1C(=O)N(C(C)C)C(C)C)C2 [Example 9, 5-fluoro-2-[(4-{6-[(1S,3S,4R)-6-methylidene-2-azabicyclo[2.2.2]octane-3-carbonyl]-2,6-diazaspiro[3.3]heptan-2-yl}pyrimidin-5-yl)oxy]-N,N-di(propan-2-yl)benzamide]
[1]
  gap between RS4; 11 proliferation IC50 and hERG current IC50: more than 100 fold

## C=C1C[C@H]2CC[C@@H]1N[C@@H]2C(=O)N1CCC2(CC1)CN(c1ncncc1Oc1ccc(F)cc1C(=O)N(C(C)C)C(C)C)C2 [Example 8, 5-fluoro-2-[(4-{7-[(1S,3S,4R)-6-methylidene-2-azabicyclo[2.2.2]octane-3-carbonyl]-2,7-diazaspiro[3.5]nonan-2-yl}pyrimidin-5-yl)oxy]-N,N-di(propan-2-yl)benzamide]
[1]
  gap between RS4; 11 proliferation IC50 and hERG current IC50: more than 100 fold

## CC(C)N(C(=O)c1cc(F)ccc1Oc1cncnc1N1CC2(CCN(C(=O)[C@H]3N[C@H]4CC[C@@H]3[C@H](F)[C@@H]4CC3CC3)CC2)C1)C(C)C [Example 19, 2-[(4-{7-[(1S,3S,4S,5R,6R)-6-(cyclopropylmethyl)-5-fluoro-2-azabicyclo[2.2.2]octane-3-carbonyl]-2,7-diazaspiro[3.5]nonan-2-yl}pyrimidin-5-yl)oxy]-5-fluoro-N,N-di(propan-2-yl)benzamide]
[1]
  hERG/RS4; 11: >690
  gap between RS4; 11 proliferation IC50 and hERG current IC50: more than 100 fold
RS4; 11 cells
  cell proliferation inhibition activity (in words): potent

## 2-[(4-{6-[(1R,3S,4R)-2-azabicyclo[2.2.2]octane-3-carbonyl]-2,6-diazaspiro[3.3]heptan-2-yl}pyrimidin-5-yl)oxy]-5-fluoro-N,N-di(propan-2-yl)benzamide [Example 11]
[1]
  pIC50: < 5.00
  gap between RS4; 11 proliferation IC50 and hERG current IC50: more than 100 fold
[4]
  mRNA at 1 μM (% control) HOXA9: 36.5 % control
[2]
  Menin-MLL binding inhibition activity (in words): potent
[3]
  mRNA transcription inhibition activity (in words): showed the mRNA transcription inhibition activity
[3]; MV4, 1 μM, 20 to 24 hours, fitted with GAPDH
  mRNA at 1 μM (% control) MEIS1: 13.1 % control
RS4; 11 cells
  cell proliferation inhibition activity (in words): potent

## 5-fluoro-2-[(4-{7-[(1S,3S,4R)-5-methylidene-2-azabicyclo[2.2.1]heptane-3-carbonyl]-2,7-diazaspiro[3.5]nonan-2-yl}pyrimidin-5-yl)oxy]-N,N-di(propan-2-yl)benzamide [Example 18]
[1]
  pIC50: 4.34
MOLM-13 cells
  pIC50: 7.40
RS4; 11 cells
  cell proliferation inhibition activity (in words): potent

## CC(C)N(C(=O)c1cc(F)ccc1Oc1cncnc1N1CC2(CN(C(=O)[C@H]3N[C@H]4CC[C@@H]3C[C@H]4CC3CC3)C2)C1)C(C)C [Example 5, 2-[(4-{6-[(1S,3S,4R,6R)-6-(cyclopropylmethyl)-2-azabicyclo[2.2.2]octane-3-carbonyl]-2,6-diazaspiro[3.3]heptan-2-yl}pyrimidin-5-yl)oxy]-5-fluoro-N,N-di(propan-2-yl)benzamide]
[1]
  gap between RS4; 11 proliferation IC50 and hERG current IC50: more than 100 fold
[2]
  Menin-MLL binding inhibition activity (in words): potent
[3]
  mRNA transcription inhibition activity (in words): showed the mRNA transcription inhibition activity
RS4; 11 cells
  cell proliferation inhibition activity (in words): potent; also recorded: excellent

## CC(C)N(C(=O)c1cc(F)ccc1Oc1cncnc1N1CC2(CN(C(=O)[C@H]3N[C@H]4CC[C@@H]3[C@@H](F)C4)C2)C1)C(C)C [Example 10, 5-fluoro-2-[(4-{6-[(1S,3S,4S,5S)-5-fluoro-2-azabicyclo[2.2.2]octane-3-carbonyl]-2,6-diazaspiro[3.3]heptan-2-yl}pyrimidin-5-yl)oxy]-N,N-di(propan-2-yl)benzamide]
[1]
  gap between RS4; 11 proliferation IC50 and hERG current IC50: more than 100 fold
[2]
  Menin-MLL binding inhibition activity (in words): particularly potent
[3]
  mRNA transcription inhibition activity (in words): showed the mRNA transcription inhibition activity
RS4; 11 cells
  cell proliferation inhibition activity (in words): potent

## C=C1C[C@@H]2CC[C@H]1[C@@H](C(=O)N1CCC3(CC1)CN(c1ncncc1Oc1ccc(F)cc1C(=O)N(C(C)C)C(C)C)C3)N2 [Example 6, 5-Fluoro-2-[(4-{7-[(1S,3S,4R)-5-methylidene-2-azabicyclo[2.2.2]octane-3-carbonyl]-2,7-diazaspiro[3.5]nonan-2-yl}pyrimidin-5-yl)oxy]-N,N-di(propan-2-yl)benzamide]
[3]
  mRNA transcription inhibition activity (in words): showed the mRNA transcription inhibition activity

## 2-[(4-{7-[(1R,3S,4S)-2-azabicyclo[2.2.1]heptane-3-carbonyl]-2,7-diazaspiro[3.5]nonan-2-yl}pyrimidin-5-yl)oxy]-5-fluoro-N,N-di(propan-2-yl)benzamide [Example 16]
[1]
  pIC50: < 4.00
MOLM-13 cells
  pIC50: 7.40
RS4; 11 cells
  cell proliferation inhibition activity (in words): potent
